Measurements taken from patent US20140094387A1, “SUV39H2 AS A TARGET GENE FOR CANCER THERAPY AND DIAGNOSIS” (ONCOTHERAPY SCIENCE, INC., priority 2011, published 2014).

Tested on: SUV39H2
Test: Quantitative real-time PCR of SUV39H2 expression after siRNA transfection
Format: cell-based, human
Conditions: A549 and SW780 cells; siRNA 100 nM; normalized by GAPDH, relative to siEGFP (siEGFP=1); vs control siRNAs siEGFP and siNC

siSUV39H2#2: siRNA duplex targeting human SUV39H2; target 5' CUGGAAUCAGCUUAGUCAA 3' (SEQ ID NO: 20); sense SEQ ID NO: 17, antisense SEQ ID NO: 18 (sense CUGGAAUCAGCUUAGUCAATT; antisense UUGACUAAGCUGAUUCCAGTT; chemistry not given here)
SUV39H2 mRNA expression level: suppression of endogenous SUV39H2 expression

siSUV39H2#1: siRNA duplex targeting human SUV39H2; target 5' CUUUGGUUGUUCAUGCACA 3' (SEQ ID NO: 19); sense SEQ ID NO: 15, antisense SEQ ID NO: 16 (sense CUUUGGUUGUUCAUGCACATT; antisense UGUGCAUGAACAACCAAAGTT; chemistry not given here)
SUV39H2 mRNA expression level: suppression of endogenous SUV39H2 expression
